Results on 19 molecules are retold here after ChEMBL document CHEMBL2074160, “Polyspecific drug and steroid clearance by an organic anion transporter of mammalian liver” (J Pharmacol Exp Ther, 1996).

The target of data set [1] is T1, Solute carrier organic anion transporter family member 1A1 (Rattus norvegicus, UniProt P46720).
T1 sequence (P46720 whole entry): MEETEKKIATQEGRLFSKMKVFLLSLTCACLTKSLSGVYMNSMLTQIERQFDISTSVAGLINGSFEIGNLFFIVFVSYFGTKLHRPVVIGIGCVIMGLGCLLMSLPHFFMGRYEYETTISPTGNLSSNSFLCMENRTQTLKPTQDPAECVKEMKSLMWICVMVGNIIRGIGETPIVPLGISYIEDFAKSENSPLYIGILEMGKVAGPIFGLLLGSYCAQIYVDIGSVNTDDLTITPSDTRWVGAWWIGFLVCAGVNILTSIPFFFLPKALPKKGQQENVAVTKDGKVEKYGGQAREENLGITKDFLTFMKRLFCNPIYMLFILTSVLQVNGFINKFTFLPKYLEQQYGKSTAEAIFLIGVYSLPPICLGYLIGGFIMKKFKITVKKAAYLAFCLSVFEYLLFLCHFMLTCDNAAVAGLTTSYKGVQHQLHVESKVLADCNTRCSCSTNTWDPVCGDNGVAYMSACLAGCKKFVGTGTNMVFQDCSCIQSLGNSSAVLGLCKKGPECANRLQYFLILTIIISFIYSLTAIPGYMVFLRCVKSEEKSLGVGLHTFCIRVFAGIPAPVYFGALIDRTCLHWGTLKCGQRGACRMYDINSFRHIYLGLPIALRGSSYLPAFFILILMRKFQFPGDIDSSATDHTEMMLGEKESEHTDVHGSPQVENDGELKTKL
Briefly: TP_TRANSPORTER: inhibition of Ouabain uptake (Ouabain: 100 uM, Aldosterone: 100 uM) in Xenopus laevis oocytes. The data set is classed as functional, cell-based. More on the design: scale not given: the % may be the effect or the level left. Conditions: oocyte.

Data set [2] addresses T1, Solute carrier organic anion transporter family member 1A1. Briefly: TP_TRANSPORTER: inhibition of Ouabain uptake (Ouabain: 100 uM, Prednisone: 100 uM) in Xenopus laevis oocytes. It counts as functional, cell-based. Also on record: scale not given: the % may be the effect or the level left. Conditions: oocyte.
For data set [3] the target is unchanged. Kind of data set: TP_TRANSPORTER: inhibition of Ouabain uptake (Ouabain: 100 uM, Testosterone: 100 uM) in Xenopus laevis oocytes. The data set is classed as functional, cell-based, Oocyte. More on the design: scale not given: the % may be the effect or the level left. The settings on record: probe Ouabain (100 uM), read-out: Activity.
Data set [4] has the same target. Kind of data set: TP_TRANSPORTER: inhibition of Ouabain uptake (Ouabain: 100 uM, Estrone-3-glucuronide: 100 uM) in Xenopus laevis oocytes. The data set is classed as functional, cell-based, Oocyte. Conditions: probe Ouabain (100 uM), read-out: Activity. Also on record: scale not given: the % may be the effect or the level left.
For data set [5] the target is unchanged. Kind of data set: TP_TRANSPORTER: inhibition of Ouabain uptake (Ouabain: 100 uM, Digitoxin: 100 uM) in Xenopus laevis oocytes. It counts as functional, cell-based, Oocyte. Also on record: scale not given: the % may be the effect or the level left. The settings on record: probe Ouabain (100 uM), read-out: Activity.
Data set [6] has the same target. Briefly: (§1) TP_TRANSPORTER: uptake in Xenopus laevis oocytes. The data set is classed as functional, cell-based, Oocyte.
The target is the same in data set [7]. Kind of data set: TP_TRANSPORTER: inhibition of Ouabain uptake (Ouabain: 100 uM, Dexamethasone: 100 uM) in Xenopus laevis oocytes. The settings on record: probe Ouabain (100 uM), read-out: Activity. More on the design: scale not given: the % may be the effect or the level left. The data set is classed as functional, cell-based, Oocyte.
Data set [8] shares this target. Kind of data set: TP_TRANSPORTER: inhibition of Ouabain uptake (Ouabain: 100 uM, Corticosterone: 100 uM) in Xenopus laevis oocytes. The data set is classed as functional, cell-based. The settings on record: oocyte. More on the design: scale not given: the % may be the effect or the level left.
The target is the same in data set [9]. Briefly: TP_TRANSPORTER: inhibition of Ouabain uptake (Ouabain: 100 uM, Rose bengal: 100 uM) in Xenopus laevis oocytes. The data set is classed as functional, cell-based. Also on record: scale not given: the % may be the effect or the level left. The settings on record: oocyte.
Data set [10] has the same target. Kind of data set: TP_TRANSPORTER: inhibition of Ouabain uptake (Ouabain: 100 uM, Cortisol: 100 uM) in Xenopus laevis oocytes. Conditions: probe Ouabain (100 uM), read-out: Activity. More on the design: scale not given: the % may be the effect or the level left. The data set is classed as functional, cell-based, Oocyte.
Data set [11] shares this target. Kind of data set: TP_TRANSPORTER: inhibition of Ouabain uptake (Ouabain: 100 uM, Estradiol-3-glucuronide: 100 uM) in Xenopus laevis oocytes. The data set is classed as functional, cell-based, Oocyte. More on the design: scale not given: the % may be the effect or the level left. Conditions: probe Ouabain (100 uM), read-out: Activity.
Data set [12] shares this target. Kind of data set: TP_TRANSPORTER: inhibition of Ouabain uptake (Ouabain: 100 uM, E1S: 100 uM) in Xenopus laevis oocytes. The settings on record: oocyte. The data set is classed as functional, cell-based. More on the design: scale not given: the % may be the effect or the level left.
For data set [13] the target is unchanged. Briefly: TP_TRANSPORTER: inhibition of Ouabain uptake (Ouabain: 100 uM, BSP: 100 uM) in Xenopus laevis oocytes. It counts as functional, cell-based, Oocyte. More on the design: scale not given: the % may be the effect or the level left. Conditions: probe Ouabain (100 uM), read-out: Activity.
Data set [14] has the same target. Briefly: TP_TRANSPORTER: inhibition of Ouabain uptake (Ouabain: 100 uM, Digoxigenin: 100 uM) in Xenopus laevis oocytes. The data set is classed as functional, cell-based, Oocyte. Also on record: scale not given: the % may be the effect or the level left. The settings on record: probe Ouabain (100 uM), read-out: Activity.
Data set [15] shares this target. Kind of data set: TP_TRANSPORTER: inhibition of Ouabain uptake (Ouabain: 100 uM, ICG: 100 uM) in Xenopus laevis oocytes. It counts as functional, cell-based. More on the design: scale not given: the % may be the effect or the level left. The settings on record: oocyte.
For data set [16] the target is unchanged. Briefly: TP_TRANSPORTER: inhibition of Ouabain uptake (Ouabain: 100 uM, E217betaG: 100 uM) in Xenopus laevis oocytes. It counts as functional, cell-based, Oocyte. Also on record: scale not given: the % may be the effect or the level left. The settings on record: probe Ouabain (100 uM), read-out: Activity.
Data set [17] shares this target. Briefly: TP_TRANSPORTER: inhibition of Ouabain uptake (Ouabain: 100 uM, Prednisolone: 100 uM) in Xenopus laevis oocytes. It counts as functional, cell-based, Oocyte. Conditions: probe Ouabain (100 uM), read-out: Activity. Also on record: scale not given: the % may be the effect or the level left.
Data set [18] has the same target. Briefly: TP_TRANSPORTER: inhibition of Ouabain uptake (Ouabain: 100 uM, beta-Estradiol: 100 uM) in Xenopus laevis oocytes. The data set is classed as functional, cell-based, Oocyte. Also on record: scale not given: the % may be the effect or the level left. The settings on record: probe Ouabain (100 uM), read-out: Activity.
Substrate in data set [19]: C[C@]12CC[C@@H]3c4ccc(OS(=O)(=O)O)cc4CC[C@H]3[C@@H]1CCC2=O
The data set is described as §1. The data set is classed as functional, cell-based, Oocyte.

Substrate in data set [20]: C[C@]12CCC(=O)C=C1CC[C@@H]1[C@@H]2[C@@H](O)C[C@@]2(C)[C@H]1CC[C@]2(O)C(=O)CO
Described as §1. The data set is classed as functional, cell-based, Oocyte.

Substrate in data set [21]: C[C@]12CC[C@@H]3c4ccc(O)cc4CC[C@H]3[C@@H]1CC[C@@H]2O[C@@H]1O[C@H](C(=O)O)[C@@H](O)[C@H](O)[C@H]1O
Described as §1. The data set is classed as functional, cell-based, Oocyte.

Substrate in data set [22]: C[C@]12CCC(=O)C=C1CC[C@@H]1[C@@H]2[C@@H](O)C[C@]2(C=O)[C@@H](C(=O)CO)CC[C@@H]12
The data set is described as §1. It counts as functional, cell-based, Oocyte.

`C[C@]12CCC(=O)C=C1CC[C@@H]1[C@@H]2[C@@H](O)C[C@]2(C=O)[C@@H](C(=O)CO)CC[C@@H]12` [ALDOSTERONE] showed an Activity in [1] of 10%.

In data set [2], `C[C@]12C=CC(=O)C=C1CC[C@@H]1[C@@H]2C(=O)C[C@@]2(C)[C@H]1CC[C@]2(O)C(=O)CO` [PREDNISONE] showed an Activity of 34%.

`C[C@]12CC[C@H]3[C@@H](CCC4=CC(=O)CC[C@@]43C)[C@@H]1CC[C@@H]2O` [TESTOSTERONE]: the activity at 100 µM in data set [3] worked out at 16%.

With `C[C@]12CC[C@@H]3c4ccc(O[C@@H]5O[C@H](C(=O)O)[C@@H](O)[C@H](O)[C@H]5O)cc4CC[C@H]3[C@@H]1CCC2=O`, the activity at 100 µM in [4] amounted to 24%.

Turning to `C[C@H]1O[C@@H](O[C@H]2[C@@H](O)C[C@H](O[C@H]3[C@@H](O)C[C@H](O[C@H]4CC[C@@]5(C)[C@H](CC[C@@H]6[C@@H]5CC[C@]5(C)[C@@H](C7=CC(=O)OC7)CC[C@]65O)C4)O[C@@H]3C)O[C@@H]2C)C[C@H](O)[C@@H]1O` [DIGITOXIN], the activity at 100 µM in data set [5] amounted to 29%.

On to `C[C@@H]1C[C@H]2[C@@H]3CCC4=CC(=O)C=C[C@]4(C)[C@@]3(F)[C@@H](O)C[C@]2(C)[C@@]1(O)C(=O)CO` [DEXAMETHASONE], for which the Activity entry in [6] (oocyte) was “substrate [+]”. In addition, the activity at 100 µM in data set [7] is 26%.

`C[C@]12C[C@H](O)[C@H]3[C@@H](CCC4=CC(=O)CC[C@@]43C)[C@@H]1CC[C@@H]2C(=O)CO` [CORTICOSTERONE] returned an Activity in data set [8] of 15%.

In data set [9], `O=C([O-])c1c(Cl)c(Cl)c(Cl)c(Cl)c1-c1c2cc(I)c(=O)c(I)c-2oc2c(I)c([O-])c(I)cc12.[Na+].[Na+]` [ROSE BENGAL SODIUM] returned an Activity of 4%.

`C[C@]12CCC(=O)C=C1CC[C@@H]1[C@@H]2[C@@H](O)C[C@@]2(C)[C@H]1CC[C@]2(O)C(=O)CO` [HYDROCORTISONE]: the activity at 100 µM in data set [10] was 19%.

Consider `C[C@@H]1O[C@@H](O[C@H]2C[C@@H](O)[C@]3(CO)[C@H]4[C@H](O)C[C@]5(C)[C@@H](C6=CC(=O)OC6)CC[C@]5(O)[C@@H]4CC[C@]3(O)C2)[C@H](O)[C@H](O)[C@H]1O` [OUABAIN], for which the Michaelis-Menten constant (Km) in [6] (Xenopus laevis oocytes) came to 1700 µM.

`C[C@]12CC[C@@H]3c4ccc(O[C@@H]5O[C@H](C(=O)O)[C@@H](O)[C@H](O)[C@H]5O)cc4CC[C@H]3[C@@H]1CC[C@@H]2O`: in data set [11], the activity at 100 µM was determined as 27%.

Consider `C[C@]12CC[C@@H]3c4ccc(OS(=O)(=O)O)cc4CC[C@H]3[C@@H]1CCC2=O` [ESTRONE SULFURIC ACID], for which the Activity in data set [12] is listed as 10%.

`O=C1OC(c2ccc(O)c(S(=O)(=O)O)c2)(c2ccc(O)c(S(=O)(=O)O)c2)c2c(Br)c(Br)c(Br)c(Br)c21` [SULFOBROMOPHTHALEIN SODIUM]: in [13], the activity at 100 µM was determined as 6%.

For `C[C@]12CC[C@H](O)C[C@H]1CC[C@@H]1[C@@H]2C[C@@H](O)[C@]2(C)[C@@H](C3=CC(=O)OC3)CC[C@]12O` [DIGOXIGENIN], the activity at 100 µM in data set [14] came out at 19%.

`CC1(C)C(/C=C/C=C/C=C/C=C2/N(CCCCS(=O)(=O)[O-])c3ccc4ccccc4c3C2(C)C)=[N+](CCCCS(=O)(=O)[O-])c2ccc3ccccc3c21.[Na+]` [INDOCYANINE GREEN] yielded an Activity in data set [15] of 6%.

On to `C[C@]12CC[C@@H]3c4ccc(O)cc4CC[C@H]3[C@@H]1CC[C@@H]2O[C@@H]1O[C@H](C(=O)O)[C@@H](O)[C@H](O)[C@H]1O` [ESTRADIOL 17B GLUCURONIDE], for which the activity at 100 µM in data set [16] amounted to 16%.

Regarding `C[C@]12C=CC(=O)C=C1CC[C@@H]1[C@@H]2[C@@H](O)C[C@@]2(C)[C@H]1CC[C@]2(O)C(=O)CO` [PREDNISOLONE], the activity at 100 µM in data set [17] is 40%.

With `C[C@]12CC[C@@H]3c4ccc(O)cc4CC[C@H]3[C@@H]1CC[C@@H]2O` [ESTRADIOL], in data set [18], the activity at 100 µM was 40%.

B1: Solute carrier organic anion transporter family member 1A1 (Rattus norvegicus) (protein)
chain: T1 sequence (P46720 whole entry)
For B1, the Km turned out to be 4.5 µM in [19], 13 µM in data set [20], 3 µM in [21] and 0.015 µM in [22].
